Experimental data: US11802111B2, “Cyclobutyl amide monoacylglycerol lipase modulators” (Janssen Pharmaceutica NV, priority 2020, dated 2023)

Biological target: human MGL from HeLa cells (Homo sapiens (Human), UniProt Q99685)
Assay: MGL in vitro activity assay ([glycerol-1,3-3H]-oleoyl glycerol hydrolysis, activated carbon filtration)
Type: biochemical
Conditions: 300 nM [Glycerol-1,3-3H]-oleoyl glycerol, one hour
Protocol: The assay used to measure the in vitro activity of MGL is adapted from the assay used for another serine hydrolase (FAAH) described in Wilson et al., 2003 (A high-throughput-compatible assay for determining the activity of fatty acid amide hydrolase. Wilson S J, Lovenberg T W, Barbier A J. Anal Biochem. 2003 Jul. 15; 318(2):270-5). The assay consists of combining endogenously expressed MGL from HeLa cells with test compounds, adding [glycerol-1,3-^3H]-oleyl glycerol, incubating for one hour, and then measuring the amount of cleaved [1,3-^3H]-glycerol that passes through an activated carbon filter. The amount of cleaved, tritiated glycerol passing through the carbon filter is proportional to the activity of the MGL enzyme in a particular well/test condition.
Standard conditions for this assay combine 300 nM [Glycerol-1,3-^3H]-oleoyl glycerol with human MGL from HeLa cells and test compounds for one hour, after which the reaction is filtered through activated carbon and tritium is measured in the flow through. The test compound concentration in screening mode is 10 μM, while the highest compound concentration in IC50 assays is determined empirically. MGL is the predominant hydrolase in HeLa cells/cell homogenates.

human MGL from HeLa cells, sequence (Q99685 whole entry): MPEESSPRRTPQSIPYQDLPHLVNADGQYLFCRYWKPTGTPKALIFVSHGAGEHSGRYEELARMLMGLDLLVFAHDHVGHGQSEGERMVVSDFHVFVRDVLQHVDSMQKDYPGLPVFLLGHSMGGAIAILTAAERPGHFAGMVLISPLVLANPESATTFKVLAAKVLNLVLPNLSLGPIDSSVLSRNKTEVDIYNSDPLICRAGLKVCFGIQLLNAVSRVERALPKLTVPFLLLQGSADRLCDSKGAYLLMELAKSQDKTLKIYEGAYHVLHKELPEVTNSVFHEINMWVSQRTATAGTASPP

Work on `Cc1cc(C2CCC3(C2)CN(C(=O)[C@H]2C[C@@](C)(O)C2)C3)ccc1OC(F)F` (mixture of isomers) [Example 72, (rac)-(6-(4-(Difluoromethoxy)-3-methylphenyl)-2-azaspiro[3.4]octan-2-yl)((1s,3s)-3-hydroxy-3-methylcyclobutyl)methanone] yielded an IC50 of 4.6 nM.
Molecule `Cc1cc(C2CC2)ccc1C1CCC2(C1)CN(C(=O)[C@H]1C[C@@](C)(O)C1)C2` (mixture of isomers) [Example 75, (rac)-(6-(4-Cyclopropyl-2-methylphenyl)-2-azaspiro[3.4]octan-2-yl)((1s,3s)-3-hydroxy-3-methylcyclobutyl)methanone] has an IC50 of 2.4 nM.
For `COc1ccc(C2CCC3(C2)CN(C(=O)[C@H]2C[C@@](C)(O)C2)C3)cc1C` (mixture of isomers) [Example 76, (rac)-((1s,3s)-3-Hydroxy-3-methylcyclobutyl)(6-(4-methoxy-3-methylphenyl)-2-azaspiro[3.4]octan-2-yl)methanone], the IC50 was 51 nM.
`Cc1cc(C2CCC3(C2)CN(C(=O)[C@H]2C[C@@](C)(O)C2)C3)cc(C(F)(F)F)c1` (mixture of isomers) [Example 77, (rac)-((1s,3s)-3-Hydroxy-3-methylcyclobutyl)(6-(3-methyl-5-(trifluoromethyl)phenyl)-2-azaspiro[3.4]octan-2-yl)methanone] gave an IC50 of 12 nM.
With `Cc1ccc(C(F)(F)F)cc1C1CCC2(C1)CN(C(=O)[C@H]1C[C@@](C)(O)C1)C2` (mixture of isomers) [Example 78, (rac)-((1s,3s)-3-Hydroxy-3-methylcyclobutyl)(6-(2-methyl-5-(trifluoromethyl)phenyl)-2-azaspiro[3.4]octan-2-yl)methanone] the IC50 was 11 nM.
In the case of `COc1cccc(C2CCC3(C2)CN(C(=O)[C@H]2C[C@@](C)(O)C2)C3)c1F` (mixture of isomers) [Example 79, (rac)-(6-(2-Fluoro-3-methoxyphenyl)-2-azaspiro[3.4]octan-2-yl)((1s,3s)-3-hydroxy-3-methylcyclobutyl)methanone], the IC50 is reported as 242 nM.
With `COc1cc(C)cc(C2CCC3(C2)CN(C(=O)[C@H]2C[C@@](C)(O)C2)C3)c1` (mixture of isomers) [Example 80, (rac)-((1s,3s)-3-Hydroxy-3-methylcyclobutyl)(6-(3-methoxy-5-methylphenyl)-2-azaspiro[3.4]octan-2-yl)methanone] the IC50 was 104 nM.
With `C[C@]1(O)C[C@@H](C(=O)N2CC3(CCC(c4cc(C5CC5)ccc4F)C3)C2)C1` (mixture of isomers) [Example 81, (rac)-(6-(5-Cyclopropyl-2-fluorophenyl)-2-azaspiro[3.4]octan-2-yl)((1s,3s)-3-hydroxy-3-methylcyclobutyl)methanone] the IC50 was 20 nM.
`Cc1ccc(C2CCC3(C2)CN(C(=O)[C@H]2C[C@@](C)(O)C2)C3)cc1OC(F)F` (mixture of isomers) [Example 82, (rac)-(6-(3-(Difluoromethoxy)-4-methylphenyl)-2-azaspiro[3.4]octan-2-yl)((1s,3s)-3-hydroxy-3-methylcyclobutyl)methanone] gave an IC50 of 31 nM.
Molecule `Cc1cc(OC(F)F)ccc1C1CCC2(C1)CN(C(=O)[C@H]1C[C@@](C)(O)C1)C2` (mixture of isomers) [Example 83, (rac)-(6-(4-(Difluoromethoxy)-2-methylphenyl)-2-azaspiro[3.4]octan-2-yl)((1s,3s)-3-hydroxy-3-methylcyclobutyl)methanone] has an IC50 of 25 nM.
Molecule `Cc1cc(OC(F)F)cc(C2CCC3(C2)CN(C(=O)[C@H]2C[C@@](C)(O)C2)C3)c1` (mixture of isomers) [Example 84, (rac)-(6-(3-(Difluoromethoxy)-5-methylphenyl)-2-azaspiro[3.4]octan-2-yl)((1s,3s)-3-hydroxy-3-methylcyclobutyl)methanone] has an IC50 of 47 nM.
`Cc1ccc(OC(F)F)cc1C1CCC2(C1)CN(C(=O)[C@H]1C[C@@](C)(O)C1)C2` (mixture of isomers) [Example 85, (rac)-(6-(5-(Difluoromethoxy)-2-methylphenyl)-2-azaspiro[3.4]octan-2-yl)((1s,3s)-3-hydroxy-3-methylcyclobutyl)methanone] gave an IC50 of 42 nM.
`COc1cc(Cl)cc(C2CCC3(C2)CN(C(=O)[C@H]2C[C@@](C)(O)C2)C3)c1` (mixture of isomers) [Example 86, (rac)-(6-(3-Chloro-5-methoxyphenyl)-2-azaspiro[3.4]octan-2-yl)((1s,3s)-3-hydroxy-3-methylcyclobutyl)methanone] was tested, and the IC50 was 42 nM.
For `COc1cc(C2CCC3(C2)CN(C(=O)[C@H]2C[C@@](C)(O)C2)C3)ccc1Cl` (mixture of isomers) [Example 87, (rac)-(6-(4-Chloro-3-methoxyphenyl)-2-azaspiro[3.4]octan-2-yl)((1s,3s)-3-hydroxy-3-methylcyclobutyl)methanone], the IC50 was 105 nM.
In the case of `CC(C)c1cccc(C2CCC3(C2)CN(C(=O)[C@H]2C[C@](O)(C(F)(F)F)C2)C3)c1` (mixture of isomers) [Example 88, (rac)-((1s,3s)-3-Hydroxy-3-(trifluoromethyl)cyclobutyl)(6-(3-isopropylphenyl)-2-azaspiro[3.4]octan-2-yl)methanone], the IC50 is reported as 59 nM.
In the case of `CC(F)(F)c1cccc(C2CCC3(C2)CN(C(=O)[C@H]2C[C@@](C)(O)C2)C3)c1` (mixture of isomers) [Example 90, (rac)-(6-(3-(1,1-Difluoroethyl)phenyl)-2-azaspiro[3.4]octan-2-yl)((1s,3s)-3-hydroxy-3-methylcyclobutyl)methanone], the IC50 is reported as 64 nM.
`CCc1cccc(C2CCC3(C2)CN(C(=O)[C@H]2C[C@@](C)(O)C2)C3)c1` (mixture of isomers) [Example 91, (rac)-(6-(3-Ethylphenyl)-2-azaspiro[3.4]octan-2-yl)((1s,3s)-3-hydroxy-3-methylcyclobutyl)methanone] gave an IC50 of 58 nM.
`Cc1ccc(C2CCC3(C2)CN(C(=O)[C@H]2C[C@@](C)(O)C2)C3)cc1C(F)F` (mixture of isomers) [Example 92, (rac)-(6-(3-(Difluoromethyl)-4-methylphenyl)-2-azaspiro[3.4]octan-2-yl)((1s,3s)-3-hydroxy-3-methylcyclobutyl)methanone] was tested, and the IC50 was 27 nM.
`Cc1cc(OC(F)(F)F)cc(C2CCC3(C2)CN(C(=O)[C@H]2C[C@@](C)(O)C2)C3)c1` (mixture of isomers) [Example 93, (rac)-((1s,3s)-3-Hydroxy-3-methylcyclobutyl)(6-(3-methyl-5-(trifluoromethoxy)phenyl)-2-azaspiro[3.4]octan-2-yl)methanone] was tested, and the IC50 was 20 nM.
`Cc1cc(C(F)F)cc(C2CCC3(C2)CN(C(=O)[C@H]2C[C@@](C)(O)C2)C3)c1` (mixture of isomers) [Example 94, (rac)-(6-(3-(Difluoromethyl)-5-methylphenyl)-2-azaspiro[3.4]octan-2-yl)((1s,3s)-3-hydroxy-3-methylcyclobutyl)methanone] was tested, and the IC50 was 60 nM.
In the case of `COc1c(C)cccc1C1CCC2(C1)CN(C(=O)[C@H]1C[C@@](C)(O)C1)C2` (mixture of isomers) [Example 95, (rac)-((1s,3s)-3-Hydroxy-3-methylcyclobutyl)(6-(2-methoxy-3-methylphenyl)-2-azaspiro[3.4]octan-2-yl)methanone], the IC50 is reported as 290 nM.
`CCc1ccc(C2CCC3(C2)CN(C(=O)[C@H]2C[C@@](C)(O)C2)C3)cc1` (mixture of isomers) [Example 96, (rac)-(6-(4-Ethylphenyl)-2-azaspiro[3.4]octan-2-yl)((1s,3s)-3-hydroxy-3-methylcyclobutyl)methanone] was tested, and the IC50 was 18 nM.
With `C[C@]1(O)C[C@@H](C(=O)N2CC3(CCC(c4ccn5nccc5c4)C3)C2)C1` (mixture of isomers) [Example 97, (rac)-((1s,3s)-3-Hydroxy-3-methylcyclobutyl)(6-(pyrazolo[1,5-a]pyridin-5-yl)-2-azaspiro[3.4]octan-2-yl)methanone] the IC50 was 654 nM.
